pIC50: −log10 of the molar value.

For four compounds, IC50 results are on record in BindingDB's records for patent US20260014125 (Haihe Biopharma, 2026).

The target in the experiment is S-adenosylmethionine synthase isoform type-2 (Homo sapiens, UniProt P31153). Nature of the experiment: Enzymatic Activity of MAT2A. The method, then: 1. 1×Assaybuffer (buffer composition: Tris, KCl, MgCl2, BSA, Brij35, and EDTA; the solvent was ultrapure water) was prepared. MAT2A his-tag enzyme solution (containing 1.3 μL of MAT2A enzyme and 998.7 μL of 1×Assaybuffer per 1000 μL) and substrate mixed solution (containing 5 μL of ATP, 1.3 μL of L-methionine, and 993.7 μL of 1×Assaybuffer per 1000 μL) were prepared using 1×AssayBuffer.2. Preparation of compound concentration gradient: The test compound was tested with a starting concentration of 10 μM, and 10 […] concentrations were set according to a 3-fold dilution. Specifically, firstly, the compound was diluted into 10 different concentrations of series solutions in a 384 well plate (with final detection concentrations of 10, 3.33, 1.11, 0.37, 0.123, 0.041, 0.0137, 0.0046, 0.0015, and 0.0005 μM), and then 250 nL of the above series solutions was transferred to the 384 well reaction plate using an ultrasonic pipetting system Echo550 for later use. 250 nL of 100% DMSO was added into a negative control well and a positive control well, respectively. Double well test.3. 15 μL of MAT2A his-tag enzyme solution was added into both the compound well and the positive control well; and 15 μL of 1×Assaybuffer was added into the negative control well.4. The 384 well plate reaction plate was centrifuged at 1000 rpm for 60 seconds, shaken, mixed well, and incubated for 15 minutes. 10 μL of substrate mixed solution was added into each experimental well of the 384 well reaction plate to initiate the reaction.5. The 384 well reaction plate was centrifuged at 1000 rpm for 60 seconds, shaken, mixed well, and incubated for 150 minutes.6. 50 μL of enzyme reaction termination solution Biomol was added into all experimental wells of the 384 well reaction plate to terminate the reaction, centrifuged at 1000 rpm for 60 seconds, and incubated for 15 minutes. OD620 was Data analysis: the inhibition rate (%) of the compound was calculated and fitted to obtain the IC50 of the tested compound.
S-adenosylmethionine synthase isoform type-2, sequence (P31153 whole entry, canonical isoform): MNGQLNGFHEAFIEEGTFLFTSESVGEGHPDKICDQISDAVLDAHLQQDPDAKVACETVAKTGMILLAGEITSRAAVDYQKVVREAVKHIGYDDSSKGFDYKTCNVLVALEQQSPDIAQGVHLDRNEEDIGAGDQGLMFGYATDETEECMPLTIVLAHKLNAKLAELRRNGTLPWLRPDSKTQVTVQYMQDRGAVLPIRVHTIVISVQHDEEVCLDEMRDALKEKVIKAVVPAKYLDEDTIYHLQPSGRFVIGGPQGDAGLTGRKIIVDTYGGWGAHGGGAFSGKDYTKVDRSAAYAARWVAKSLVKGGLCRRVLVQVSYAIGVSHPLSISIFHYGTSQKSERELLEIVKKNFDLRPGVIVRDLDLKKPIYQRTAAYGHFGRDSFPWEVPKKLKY
On to `CCOc1c(-c2ccc(OC(F)F)cc2)c(=O)n(-c2ccc3nccn3c2)c2[nH]ncc12` [US20260014125, Compound 24], for which the pIC50 is 7.80. Take `CCOc1c(-c2ccc(OC(F)F)cc2)c(=O)n(-c2ccc3nn(CCOC)cc3c2)c2[nH]ncc12` [US20260014125, Compound 21]: the pIC50 is 8.08. `CCOc1c(-c2ccc(OC(F)F)cc2)c(=O)n(-c2ccn3nccc3c2)c2[nH]ncc12` [US20260014125, Compound 23]: the pIC50 was 8.01. The value for `CCOc1c(-c2ccc(OC(F)F)cc2)c(=O)n(-c2ccc3ncnn3c2)c2[nH]ncc12` [US20260014125, Compound 25] was 7.85.

A word on the pIC50: it is the IC50 on a negative log10 scale, so that one unit is a factor of ten.
